Measurements as given in US20060052350A1, “Crystalline forms of 1,24(S)-dihydroxy vitamin D2” (priority 2004, published 2006).

Experiment: Stability of the crystalline forms exposed to 100% relative humidity (resulting form identified by powder XRD)
Assay type: physicochemical
Conditions: 100% relative humidity for about 1 week at room temperature
Method: The crystal forms were identified using an Applied Research Laboratory (SCINTAG) powder X-ray diffractometer model X'TRA equipped with a solid state detector. The crystal samples were analyzed using a round aluminum sample holder with zero background and copper radiation of 1.5418 Å.

Compound: C=C1/C(=C\C=C2/CCCC3(C)C2CCC3[C@H](C)/C=C/[C@@](C)(O)C(C)C)C[C@@H](O)C[C@@H]1O (stereo partly drawn) [Form B, 1,24(S)-dihydroxy vitamin D2]
- Maintenance of crystal structure (no transformation to another crystalline form) on humidity exposure: maintain their crystal structure
